For 27 compounds, IC50 results are on record in patent US5155103A, “Methods of using new thieno-triazole-1,4-diazepino-2-carboxylic acid amides” (Boehringer Ingelheim GmbH, priority 1985, dated 1992).

One may read the IC50 as the concentration that inhibits the measured activity by half.

Like-named read-outs stand apart in the source and are kept apart here.

The subject of the assay is human thrombocytes (PAF-induced aggregation). Put plainly: inhibition of PAF-induced aggregation of human thrombocytes in vitro. Type of assay: cell-based. As to the method:
In order to determine the PAF-antagonistic effect of substances the PAF-induced aggregation of human thrombocytes in vitro is used. To obtain thrombocyte-rich plasma (TRP), blood is taken from an uncongested vein using a plastic syringe containing 3.8% sodium citrate solution. The ratio of sodium citrate solution to blood is 1:9. After careful mixing, the citrated blood is centrifuged for 20 minutes (150×g, 1200 rpm). The thrombocyte aggregation is measured using the method developed by Born and Cross (G. V. R. Born and M. J. Cross, J. Physiol. 168, 178 (1963)), PAF being added to the TRP with constant stirring to initiate aggregation.
The test substance is added 2 to 3 minutes before the aggregation is induced in a volume of 10 μl. The solvent used is either distilled water, ethanol and/or dimethylsulfoxide. Control mixtures are given corresponding volumes of these solvents. After the initial absorption has been recorded (2 to 3 minutes) aggregation is induced with PAF (5×10^-8 M).
To assess the effects of substances, the maximum of the first aggregation wave is used. The maximum absorption rate induced by PAF (=maximum aggregation×100%) is tested simultaneously in a parallel mixture (=control mixture in one of the channels of the 2-channel aggregometer) with each test mixture (second channel) and used as the 100% value.
The aggregation value achieved under the influence of the test substance is given as 100%.
Each test substance is investigated at concentrations of 10^-3 to 10^-8 M with a random test scope of n=4 for any inhibiting effect on the PAF-induced thrombocyte aggregation. Then a concentration-activity curve is drawn up using 3 concentrations and the IC50 is determined (concentration at 50% inhibition of aggregation).

[1] abbreviates: Table B, PAF 5×10^-8 M, human thrombocyte-rich plasma, read-out: PAF-Antag. IC50.
Where [2] appears, read: Homo sapiens, unit inferred, read-out: IC50.

For the compound `Cc1nnc2n1-c1sc(Br)cc1C(c1ccccc1Cl)=NC2` [Brotizolam, reference compound], the IC50 under setting [1] came to 0.5 µM.

With `CCc1cc2c(s1)-n1c(C)nnc1CN=C2c1ccccc1Cl` [Etizolam, reference compound], under setting [1], the IC50 is 0.5 µM. As for `Cc1nnc2n1-c1sc(CCC(=O)N3CCOCC3)cc1C(c1ccccc1Cl)=NC2` [Example 1, 2-[4-(2-Chlorophenyl)-9-methyl-6H-thieno[3,2-f][1,2,4]-triazolo[4,3-a][1,4]diazepin-2-yl]-ethane-1-carboxylic acid morpholide], the IC50 runs as follows: under setting [2], 0.17 µM; under setting [1], 0.17 µM.

Consider `O=C(CCc1cc2c(s1)-n1c(nnc1C1CC1)CN=C2c1ccccc1Cl)N1CCOCC1` [Example 2], for which the IC50 under setting [1] came to 0.33 µM. Consider `Cc1nnc2n1-c1sc(C(=O)N3CCOCC3)cc1C(c1ccccc1Cl)=NC2` [Example 3, [4-(2-Chlorophenyl)-9-methyl-6H-thieno[3,2-f][1,2,4]triazolo-[4,3-a][1,4]diazepin-2-yl]-carboxylic acid morpholide], for which the IC50 under setting [1] is 0.71 µM. As to `Cc1nnc2n1-c1sc(C(N)=O)cc1C(c1ccccc1Cl)=NC2` [Example 4, [4-(2-Chlorophenyl)-9-methyl-6H-thieno[3,2-f][1,2,4]triazolo-[4,3-a][1,4]diazepin-2-yl]-carboxylic acid amide], under setting [1], the IC50 came to 8.3 µM.

In the case of `CCN(CC)C(=O)CCc1cc2c(s1)-n1c(C)nnc1CN=C2c1ccccc1Cl` [Example 5, 2-[4-(2-Chlorophenyl)-9-methyl-6H-thieno[3,2-f][1,2,4]-triazolo[4,3-a][1,4]diazepin-2-yl]-ethane-1-carboxylic acid diethylamide], the IC50 came out at 0.7 µM under setting [2] and 0.72 µM under setting [1]. `Cc1nnc2n1-c1sc(CC(=O)N3CCOCC3)cc1C(c1ccccc1Cl)=NC2` [Example 6, [4-(2-Chlorophenyl)-9-methyl-6H-thieno[3,2-f][1,2,4]triazolo-[4,3-a][1,4]-diazepin-2-yl]-methane carboxylic acid morpholide]: the IC50 under setting [1] turned out to be 1.3 µM. Same read-out and setting: next, `Cc1nnc2n1-c1sc(CCCC(=O)N3CCOCC3)cc1C(c1ccccc1Cl)=NC2` [Example 7, 3-[4-(2-Chlorophenyl)-9-methyl-6H-thieno[3,2-f][1,2,4]-triazolo-[4,3-a][1,4]-diazepin-2-yl]-propane-1-carboxylic acid morpholide]: 0.85 µM. As to `Cc1nnc2n1-c1sc(CCCCC(=O)N3CCOCC3)cc1C(c1ccccc1Cl)=NC2` [Example 8], the IC50 under setting [1] was 0.87 µM. For the compound `O=C(CCc1cc2c(s1)-n1c(Br)nnc1CN=C2c1ccccc1Cl)N1CCOCC1` [Example 9], the IC50 under setting [1] was found to be 0.47 µM.

In the case of `COc1nnc2n1-c1sc(CCC(=O)N3CCOCC3)cc1C(c1ccccc1Cl)=NC2` [Example 10, 2-[4(2-Chlorophenyl)-9-methoxy-6H-thieno[3,2-f][1,2,4]-triazolo-[4,3-a][1,4]-diazepin-2-yl]-ethane-1-carboxylic acid morpholide], the IC50 under setting [1] is 0.2 µM. Regarding `CNC(=O)CCc1cc2c(s1)-n1c(C)nnc1CN=C2c1ccccc1Cl` [Example 12, 2-[4-(2-Chlorophenyl)-9-methyl-6H-thieno[3,2-f][1,2,4]-triazolo[4,3-a][1,4]diazepin-2-yl]-ethane-1-carboxylic acid methylamide], under setting [1], the IC50 worked out at 0.35 µM.

For the compound `Cc1nnc2n1-c1sc(CCC(=O)NC(C)C)cc1C(c1ccccc1Cl)=NC2` [Example 13, 2-[4-(2-Chlorophenyl)-9-methyl-6H-thieno[3,2-f][1,2,4]-triazolo[4,3-a][1,4]diazepin-2-yl]-ethane-1-carboxylic acid isopropylamide], under setting [1], the IC50 was 1.54 µM.

Consider `Cc1nnc2n1-c1sc(CCC(=O)N(C)C)cc1C(c1ccccc1Cl)=NC2` [Example 14, 2-[4-(2-Chlorophenyl)-9-methyl-6H-thieno[3,2-f][1,2,4]-triazolo[4,3-a][1,4]diazepin-2-yl]-ethane-1-carboxylic acid dimethylamide], for which the IC50 under setting [1] is 2.2 µM. With `Cc1nnc2n1-c1sc(CCC(=O)N3CCCC3)cc1C(c1ccccc1Cl)=NC2` [Example 15, 2-[4-(2-Chlorophenyl)-9-methyl-6H-thieno[3,2-f][1,2,4]-triazolo[4,3-a][1,4]diazepin-2-yl]-ethane-1-carboxylic acid pyrrolidide], the 50% inhibitory concentration (IC50) under setting [1] is 0.38 µM. Same read-out and setting: next, `Cc1nnc2n1-c1sc(CCC(=O)N3CCCCC3)cc1C(c1ccccc1Cl)=NC2` [Example 16, 2-[4-(2-Chlorophenyl)-9-methyl-6H-thieno[3,2-f][1,2,4]-triazolo[4,3-a][1,4]diazepin-2-yl]-ethane-1-carboxylic acid piperidide]: 1.33 µM. Take `Cc1nnc2n1-c1sc(CCC(=O)N3CCN(C)CC3)cc1C(c1ccccc1Cl)=NC2` [Example 17, 2-[4-(2-Chlorophenyl)-9-methyl-6H-thieno[3,2-f][1,2,4]-triazolo[4,3-a][1,4]diazepin-2-yl]-ethane-1-carboxylic acid N'-methyl-piperazide]: the concentration for half-maximal inhibition (IC50) under setting [1] is 0.9 µM.

With `CCN(CC)C(=O)CCc1cc2c(s1)-n1c(nnc1C1CC1)CN=C2c1ccccc1Cl` [Example 18, 2-[4-(2-Chlorophenyl)-9-cyclopropyl-6H-thieno[3,2-f][1,2,4]triazolo[4,3-a][1,4]diazepin-2-yl]-ethane-1-carboxylic acid diethylamide], under setting [1], the IC50 came out at 0.8 µM. For `O=C(CCc1cc2c(s1)-n1cnnc1CN=C2c1ccccc1Cl)N1CCOCC1` [Example 19, 2-[4-(2-chlorophenyl)-6H-thieno[3,2-f][1,2,4]-triazolo[4,3-a][1,4]-diazepin-2-yl]-ethane-1-carboxylic acid morpholide], the IC50 under setting [1] was found to be 8.2 µM. For the compound `Cc1nnc2n1-c1sc(CC(N)=O)cc1C(c1ccccc1Cl)=NC2` [Example 20], the IC50 under setting [1] came to 5.3 µM.

With `Cc1nnc2n1-c1sc(CCC(=O)N(CCO)CCO)cc1C(c1ccccc1Cl)=NC2` [Example 21], the IC50 under setting [1] came out at 2.9 µM. `Cc1nnc2n1-c1sc(CCC(=O)N3CCOCC3)cc1C(c1ccccc1)=NC2` [Example 22, 2-[4-Phenyl-9-methyl-6H-thieno[3,2-f][1,2,4]triazolo-[4,3-a][1,4]diazepin-2-yl]-ethane-1-carboxylic acid morpholide]: under setting [1], the IC50 turned out to be 0.54 µM. As for `Cc1nnc2n1-c1sc(CCC(=O)NCCO)cc1C(c1ccccc1Cl)=NC2` [Example 23], under setting [1], the IC50 was 0.75 µM. Turning to `O=C(CCc1cc2c(s1)-n1c(CCl)nnc1CN=C2c1ccccc1Cl)N1CCOCC1` [Example 24], the IC50 under setting [1] came out at 1.4 µM. On to `CCCOc1nnc2n1-c1sc(CCC(=O)N3CCOCC3)cc1C(c1ccccc1Cl)=NC2` [Example 26], for which, under setting [1], the IC50 stood at 8.1 µM. For the compound `Cc1nnc2n1-c1ccc(Cl)cc1C(c1ccccc1Cl)=NC2` [Triazolam, reference compound], the IC50 under setting [1] stood at 1.4 µM.
